Experimental data reported in patent US4455441A, “Attractant termiticidal compounds, compositions and methods of use therefor” (Research Foundation of State University of New York, priority 1982, dated 1984).
Like-named read-outs stand apart in the source and are kept apart here.

Legend:
Reticulitermes flavipes = test: Bioassay of fluoroalkanols (Petri dish assay), termite toxicity; type: in vivo, Reticulitermes flavipes Kollar; details: quantity impregnated in filter pads required to cause 50% mortality at 3 days
Protocol: Test compounds were dissolved in dry diethyl ether or dichloromethane and a 1.0 ml portion of the solution was pipetted onto a Gelman sterile 47-mm cellulose pad (Howard and Haverty, 1979). The ether was allowed to evaporate for 10 min, 1.0 ml of distilled water was added to the pad, and the pad was placed in a tight-sealing Gelman 50-mm plastic Petri dish.
Termites (Reticulitermes flavipes Kollar) were collected from rotten logs and tree stumps on the Stony Brook campus. Colonies were kept in trash cans in an insectary (85% RH, 27° C.) for a period of about 6 months before use in this experiment. The experiments were performed in an incubator at +28° C. Undifferentiated larvae above the third instar ("workers") were used in all toxicity tests. Termites were first shaken loose from the interior of the wood, then transferred using mouth aspirators and with soft forceps. The termites were held on filter paper for 24 hours, twenty healthy termites were added to each dish, and the number of dead which were then removed to prevent cannibalism was recorded at daily intervals.
^c Quantity of fluoro compound impregnated in filter pads required to
cause 50% mortality at 3 days.

mice = details: based on Pattison (1959), cited from earlier work
termites [1] = test: Maximum attractiveness (above 50% level); type: in vivo
termites [2] = test: Trail activity (trail following by termites); type: in vivo; details: at 5 × 10^-6 g/10 c (highest conc. tested)
Excerpt: ^a Value is minimum quantity (in grams) per 10 cm required to elicit
trailfollowing by a total of 8/20 termites in four trails.
^b Maximum number of termites following at 5 × 10^-6 g/10 c
(highest conc. tested).

[3] = estimate from comparison compound C12 satd.
[4] = estimate from comparison compound C18 satd.
[5] = saturated omega-fluoro compound

| Compound | Median Lethal-dose (Reticulitermes flavipes) | Estimated LD50 (mice) (mice; estimate from comparison compound C10 satd.) [mg/kg] | Estimated LD50 (mice) (mice; [3]) [mg/kg] | Estimated LD50 (mice) (mice; [4]) [mg/kg] | Maximum attractiveness (above 50% level) (termites [1]) | Maximum attractiveness (above 50% level), minimum (termites [1]; minimum) | Trail activity, maximum number of termites following (termites [2]) | Estimated LD50 (mice) (mice; [5]) [mg/kg] |
| --- | --- | --- | --- | --- | --- | --- | --- | --- |
| OCC/C=C\CCCCCCF [10-fluoro-(Z)-3-decen-1-ol] | .0095 mg/dish | 1.0 |  |  |  |  |  |  |
| 16-fluoro-Z/E 9-hexadecen-1-ol | 0.020 mg/dish |  | 1.5 | 4.0 |  |  |  |  |
| OCC/C=C\C/C=C\CCCCCF [12-fluoro-(Z),(Z)-3,6-dodecadien-1-ol] | .012 mg/dish |  | 1.5 |  | 10^-7 9 | 10^-8 |  |  |
| OCC/C=C\CCCCCCCCF [12-Fluoro-(Z)-3-dodecen-1-ol] | .0093 mg/dish |  | 1.5 |  | 10^-7 9 |  |  |  |
| OCCCCCCCCCCCCF [F(CH2)11 CH2 OH, 12-fluorododecan-1-ol] | .0077 mg/dish |  |  |  |  |  | 6/20 | 1.5 |
| OCCCCCCCCCCCF [F(CH2)10 CH2 OH] | .062 mg/dish |  |  |  |  |  | 6/20 | > 100 |
| OCCCCCCCC/C=C/CCCCCCF [16-fluoro-Z/E 9-hexadecen-1-ol] | 0.024 mg/dish |  | 1.5 | 4.0 |  |  |  |  |
